tested on: H9c2; experiment: Cardioprotective activity against TNF-alpha induced rat H9c2 cells assessed as increase in cell viability at 2.5 uM pretreated with TNF-alpha for 1 hr followed by compound addition measured after 48 hrs by MTT assay relative to control; format: functional

Compared with CO[C@@H](CC/C=C\CCCCC(=O)CCCCC(=O)CCCCCCCCCCO[C@@H]1O[C@H](C(=O)O)[C@@H](O)[C@H](O)[C@H]1O)C(=O)NCCc1ccc(O)c(O)c1, CO[C@@H](CC/C=C\CCCCC(=O)CCCCC(=O)CC/C=C\CCCCCCCCO[C@@H]1O[C@H](C(=O)O)[C@@H](O)[C@H](O)[C@H]1O)C(=O)NCCc1ccc(O)c(O)c1 is higher in Activity: 18% for the first, 25% for the second.

CO[C@@H](CC/C=C\CCCCC(=O)C1=C(CC/C=C\CCCCCCCCO[C@@H]2O[C@H](C(=O)O)[C@@H](O)[C@H](O)[C@H]2O)CCC1)C(=O)NCCc1ccc(O)c(O)c1 gave an Activity of 23%.

From ChEMBL document CHEMBL5120810, “Toporosides A and B, Cyclopentenyl-Containing ω-Glycosylated Fatty Acid Amides, and Toporosides C and D from the Northwestern Pacific Marine Sponge Stelodoryx toporoki” (2022)
